In US12559750B2, “Methods and compositions for treatment of polycystic kidney disease” (Regulus Therapeutics Inc., priority 2021, dated 2026):

What was measured:
AMPA-R (GluA1/GluA4) = target: T1, AMPA-R (GluA1/GluA4) (Homo sapiens, UniProt P42261+P48058); assay: Manual whole-cell patch clamp, ChanTest GluA1/GluA4 EZCells; assay type: cell-based
T1 construct: host or cells: ChanTest GluA1/GluA4 EZCells
Experimental: To evaluate functional antagonism of anti-miR-17 oligonucleotides towards the AMPA-R, certain oligonucleotides were tested using the manual whole-cell patch clamp technique, which records membrane currents as a measure of AMPA-R activity.
Manual whole-cell patch clamp studies were performed by Metrion Biosciences (Cambridge, UK). Whole-cell voltage clamp experiments were performed at room temperature (18-21° C.) using an EPC10 patch clamp amplifier using Patchmaster software (HEKA Elektronik). Glass patch pipettes were fabricated from borosilicate glass capillaries (Harvard Apparatus) to resistances between 1.4 and 2.5 MΩ. Membrane currents were recorded using the whole-cell patch clamp technique. ChanTest® GluA1/GluA4 EZCells were clamped at a holding potential of −80 mV and membrane currents elicited by 10 μM(S)-AMPA delivered using a VC38 perfusion system (ALA Scientific Instruments). The […] current amplitude values were measured with each application of 10 μM(S)-AMPA. The fractional change of current amplitude produced by each concentration of compound was calculated relative to the control current (pre-compound) and expressed as percentage change (% inhibition) for each cell. RGLS4326 was tested in a separate study from all other compounds in Table 6.

miR-17 [1] = assay: miR-17 PD-Sig in human kidney cell lines; assay type: cell-based
mice = assay: High-dose subcutaneous mouse toxicity studies, CNS-related findings; details: for CNS toxicity in high-dose mouse toxicity studies: single 2000 mg/kg and/or escalating doses 100, 450, 2000 mg/kg, in words
Experimental: Each compound was tested in a single dose at 2000 mg/kg, and at escalating doses (100, 450, and 2000 mg/kg).

AMPA-R = assay: [3H]AMPA radioligand binding assay on rat brain synaptic membranes; details: for % Inhibition @ Concentration 100 uM: Table 8 (3′-terminal nucleobase/sugar variants); for % Inhibition @ Concentration 0.1 uM: Table 8, 0.1 uM; for % Inhibition @ Concentration 1 uM: Table 8, 1 uM; for % Inhibition @ Concentration 10 uM: Table 8, 10 uM;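 on all read-outs here: competition binding in which test compounds at rising concentrations displace [3H]AMPA from AMPA-R on rat brain synaptic membranes, with reduced bound radioligand as read-out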
Experimental: The activity of anti-miR-17 compounds was evaluated in a radioligand binding assay which measured the binding of the [^3H] AMPA ligand to the AMPA-R present on rat brain synaptic membranes, in the presence of increasing concentrations of anti-miR-17 compound, anti-miR-17 compounds with affinity for the AMPA-R will bind to and compete with the binding of the [^3H] AMPA ligand.
5.0 nM of the ligand [^3H] AMPA, 1.0 mM of the non-specific ligand L-Glutamic acid, and anti-miR compound at uM concentrations were incubated with synaptic membranes prepared from Wistar rat cerebral cortex for 90 minutes.
The compounds were tested in the radioligand binding assay described herein, to determine the ability of the anti-miR-17 compounds to and compete with the binding of the [3H] AMPA ligand.

[2] = system: KspCre/Pkd1F/RC (Pkd1-F/RC) mice; assay: Efficacy in Pkd1-F/RC mouse model of ADPKD; assay type: in vivo; details: 20 mg/kg SC on days 8, 10, 12, 15 of age; for Mean BW/KW Ratio / Mean Serum BUN / Mean Serum Creatine: sacrificed at 18 days
Experimental: Mice were sacrificed at 18 days of age, and kidney weight, body weight, cyst index, serum creatinine level, and blood urea nitrogen (BUN) level were measured. BUN level is a marker of kidney function. A higher BUN level correlates with poorer kidney function, thus a reduction in BUN level is an indicator of reduced kidney injury and damage and improved function. Statistical significance was calculated by one-way ANOVA with Dunnett's multiple correction.

miR-17 [3] = assay: miR-17 PD-Sig in mouse kidney cell lines; assay type: cell-based
Experimental: The activity of certain compounds was evaluated using a mouse miR-17 Pharmacodynamic-Signature (miR-17 PD-Sig), which consists of the expression of 18 unique miR-17 target genes normalized by six reference housekeeping genes, to provide an unbiased and comprehensive assessment of miR-17 activity. The mouse miR-17 PD-Sig score was the calculated average of the 18 genes' individual log 2 fold changes (normalized by six housekeeping genes) compared to mock transfection (Lee et al., Nat. Commun., 2019, 10, 4148).
The PD-Sig for RGLS4326 in mIMCD3 cells (77.2, indicated by “*”) was not generated in this experiment; the value in Table 14 is that reported by Lee et al., Nat. Commun., 2019, 10, 4148. Blank cells in the table indicate that a compound was not tested in a particular cell line.

miR-17 [4] = assay: microRNA polysome shift assay (miPSA) in kidney of wild type mice; assay type: in vivo, mouse; design: scale not given here; details: seven days later
Experimental: In vivo potency was evaluated using the microRNA polysome shift assay (miPSA). This assay was used to determine the extent to which compounds directly engage the miR-17 target in the kidney in normal and PKD mice. The miPSA relies on the principle that active miRNAs bind to their mRNA targets in translationally active high molecular weight (HMW) polysomes, whereas the inhibited miRNAs reside in the low MW (LMW) polysomes. Treatment with anti-miR results in a shift of the microRNA from HMW polysomes to LMW polysomes. Thus, the miPSA provides a direct measurement of microRNA target engagement by a complementary anti-miR (Androsavich et al., Nucleic Acids Research, 2015, 44: e13).
Wild type mice were administered a single dose of 0.3 mg/kg, 3 mg/kg, or 30 mg/kg. Kidney tissue was collected seven days later and subjected to the miPSA. The mean displacement score for each treatment is shown in Table 15 (PBS, n=17; RGLS4326 30 mg/kg, n=10; all other treatments, n=4-5). The tested oligonucleotides displaced miR-17 from translationally active polysome (as measured by miPSA) in normal mouse kidneys.

miR-17 [5] = assay: miR-17 luciferase sensor assay in HeLa cells; assay type: cell-based; details: for EC50: HeLa cells, 18- to 24-hour transfection
Experimental: The in vitro potency of certain compounds was evaluated using a miR-17 luciferase sensor assay which uses a luciferase reporter vector for miR-17, with two fully complementary miR-17 binding sites in tandem in the 3′-UTR of the luciferase gene. HeLa cells were co-transfected with the luciferase reporter vector and an exogenous miR-17-expression vector that acted to repress the luciferase signal.

T1 sequence (P42261 19-906): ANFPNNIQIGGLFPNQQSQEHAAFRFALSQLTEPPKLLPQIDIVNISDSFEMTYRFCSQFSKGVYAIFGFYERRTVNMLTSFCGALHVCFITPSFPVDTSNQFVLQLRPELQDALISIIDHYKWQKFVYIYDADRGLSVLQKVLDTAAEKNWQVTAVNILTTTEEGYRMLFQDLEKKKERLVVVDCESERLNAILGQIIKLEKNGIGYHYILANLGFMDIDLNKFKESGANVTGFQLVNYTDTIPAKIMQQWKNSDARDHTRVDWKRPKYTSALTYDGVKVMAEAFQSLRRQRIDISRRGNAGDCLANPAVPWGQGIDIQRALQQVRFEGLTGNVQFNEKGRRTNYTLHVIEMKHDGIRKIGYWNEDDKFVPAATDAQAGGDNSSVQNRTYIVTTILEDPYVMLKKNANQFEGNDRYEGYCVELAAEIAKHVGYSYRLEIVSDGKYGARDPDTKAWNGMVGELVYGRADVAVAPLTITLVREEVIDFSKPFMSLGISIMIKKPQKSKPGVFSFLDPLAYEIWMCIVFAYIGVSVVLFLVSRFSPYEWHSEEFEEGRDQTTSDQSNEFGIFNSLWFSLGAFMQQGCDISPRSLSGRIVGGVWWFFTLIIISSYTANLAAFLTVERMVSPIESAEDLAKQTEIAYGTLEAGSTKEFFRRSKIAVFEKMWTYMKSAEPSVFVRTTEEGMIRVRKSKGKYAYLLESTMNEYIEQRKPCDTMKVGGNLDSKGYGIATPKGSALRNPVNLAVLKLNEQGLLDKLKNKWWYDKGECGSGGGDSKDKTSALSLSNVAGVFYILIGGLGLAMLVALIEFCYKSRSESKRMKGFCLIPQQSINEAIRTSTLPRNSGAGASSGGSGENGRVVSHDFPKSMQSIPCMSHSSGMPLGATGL
T1 sequence (P48058 21-902): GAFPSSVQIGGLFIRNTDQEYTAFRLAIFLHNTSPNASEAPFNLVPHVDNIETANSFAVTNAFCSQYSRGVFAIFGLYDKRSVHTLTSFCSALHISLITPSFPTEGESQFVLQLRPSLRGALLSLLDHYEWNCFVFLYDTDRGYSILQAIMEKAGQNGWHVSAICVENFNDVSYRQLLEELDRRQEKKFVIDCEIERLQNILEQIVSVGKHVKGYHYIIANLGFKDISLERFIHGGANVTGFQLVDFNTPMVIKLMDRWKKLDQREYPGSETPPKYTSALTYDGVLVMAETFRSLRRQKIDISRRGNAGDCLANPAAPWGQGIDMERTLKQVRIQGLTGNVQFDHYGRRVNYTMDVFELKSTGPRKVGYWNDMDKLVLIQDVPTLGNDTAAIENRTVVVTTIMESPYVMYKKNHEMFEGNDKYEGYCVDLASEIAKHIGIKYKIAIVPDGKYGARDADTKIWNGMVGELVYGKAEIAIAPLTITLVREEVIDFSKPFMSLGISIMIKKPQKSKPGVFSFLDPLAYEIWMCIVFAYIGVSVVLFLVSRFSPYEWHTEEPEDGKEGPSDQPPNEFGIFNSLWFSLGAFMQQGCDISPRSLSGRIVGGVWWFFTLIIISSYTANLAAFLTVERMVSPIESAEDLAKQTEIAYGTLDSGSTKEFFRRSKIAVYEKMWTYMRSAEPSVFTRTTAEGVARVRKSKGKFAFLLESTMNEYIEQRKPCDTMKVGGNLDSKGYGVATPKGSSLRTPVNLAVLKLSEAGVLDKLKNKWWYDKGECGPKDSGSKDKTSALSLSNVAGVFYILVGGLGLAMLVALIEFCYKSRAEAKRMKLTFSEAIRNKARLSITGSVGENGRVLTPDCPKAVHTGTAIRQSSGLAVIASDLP

ASGSCMAFCFUFUMUSAS [RG-NG-1015]
% Inhibition on membrane currents evoked with 10 uM (s)-AMPA (Mean ± SD) (AMPA-R (GluA1/GluA4); 0.3 uM compound): 16.0 ± 5.0%
% Inhibition on membrane currents evoked with 10 uM (s)-AMPA (Mean ± SD) (AMPA-R (GluA1/GluA4); 3 uM compound): 39.5 ± 5.4%
functional antagonism towards AMPA-R relative to RGLS4326 (AMPA-R (GluA1/GluA4); in words): reduced functional antagonism towards AMPA-R
EC50 (miR-17 [1]; HK-2, human, Normal): 55.6 nM
EC50 (miR-17 [1]; WT9-7, human, PKD): 21.2 nM
CNS-related findings noted (mice; SC 2000 mg/kg, Single): No
CNS-related findings noted (mice; SC 100, 450, 2000 mg/kg/dose, QDx4): No
CNS toxicity in high-dose mouse toxicity studies (mice): no CNS-toxicity were observed
IC50 (AMPA-R; Experiment #2): > 100000 nM
% Inhibition @ 0.1 uM (AMPA-R; Experiment #2, 0.1 uM): 2.3%
% Inhibition @ 1 uM (AMPA-R; Experiment #2, 1 uM): 11%
% Inhibition @ 10 uM (AMPA-R; Experiment #2, 10 uM): 6.5%
% Inhibition @ 100 uM (AMPA-R; Experiment #2, 100 uM): 19.9%
IC50 (AMPA-R; Table 8): ≥ 100000 nM
% Inhibition @ Concentration 100 uM (AMPA-R): 5.6%
% Inhibition @ Concentration 0.1 uM (AMPA-R): −0.8%
% Inhibition @ Concentration 1 uM (AMPA-R): −10.3%
% Inhibition @ Concentration 10 uM (AMPA-R): −7%
BW/KW Ratio, Mean Difference vs. PBS [2]: −48.79
Serum BUN, Mean Difference vs. PBS [2]: −20.21
Serum Creatine, Mean Difference vs. PBS [2]: −0.034
Mean BW/KW Ratio [2]: 16.83
Mean Serum BUN [2]: 22.26
Mean Serum Creatine [2]: 0.1279
EC50 (miR-17 [3]; D52B5, mouse, PKD): 82.4 nM
EC50 (miR-17 [3]; mIMCD3, mouse, Normal): 168 nM
miPSA Displacement Score, Mean (miR-17 [4]; single dose 3 mg/kg): 2.562
miPSA Displacement Score, Mean (miR-17 [4]; single dose 30 mg/kg): 2.718
miPSA Displacement Score, Mean (miR-17 [4]; single dose 0.3 m/kg): 2.238
Log2FC (37.5 nM) (miR-17 [5]): 2.51
EC50 (miR-17 [5]): 22.4 nM

ASGSCMAFCFUFUMUSGS [RGLS4326, reference compound]
% Inhibition on membrane currents evoked with 10 uM (s)-AMPA (Mean ± SD) (AMPA-R (GluA1/GluA4); 0.3 uM compound): 46.9 ± 9.8%
% Inhibition on membrane currents evoked with 10 uM (s)-AMPA (Mean ± SD) (AMPA-R (GluA1/GluA4); 3 uM compound): 87.4 ± 7.9%
EC50 (miR-17 [1]; HK-2, human, Normal): 47.8 nM
EC50 (miR-17 [1]; WT9-7, human, PKD): 17.3 nM
CNS toxicity in high-dose mouse toxicity studies (mice): ataxia, lethargy, and in the case of RGLS4326, unconsciousness at the highest dose
IC50 (AMPA-R; Experiment #1): 700 nM
% Inhibition @ 0.1 uM (AMPA-R; Experiment #1, 0.1 uM): 17.6%
% Inhibition @ 1 uM (AMPA-R; Experiment #1, 1 uM): 55.5%
% Inhibition @ 10 uM (AMPA-R; Experiment #1, 10 uM): 93%
% Inhibition @ 100 uM (AMPA-R; Experiment #1, 100 uM): 104.1%
IC50 (AMPA-R; Experiment #2): 270 nM
% Inhibition @ 0.1 uM (AMPA-R; Experiment #2, 0.1 uM): 31.5%
% Inhibition @ 1 uM (AMPA-R; Experiment #2, 1 uM): 73.1%
% Inhibition @ 10 uM (AMPA-R; Experiment #2, 10 uM): 93.6%
% Inhibition @ 100 uM (AMPA-R; Experiment #2, 100 uM): 96.8%
IC50 (AMPA-R; Experiment #3): 780 nM
% Inhibition @ 0.1 uM (AMPA-R; Experiment #3, 0.1 uM): 14.6%
% Inhibition @ 1 uM (AMPA-R; Experiment #3, 1 uM): 55.8%
% Inhibition @ 10 uM (AMPA-R; Experiment #3, 10 uM): 89%
% Inhibition @ 100 uM (AMPA-R; Experiment #3, 100 uM): 97.2%
IC50 (AMPA-R; Table 8): 1610 nM
% Inhibition @ Concentration 100 uM (AMPA-R): 99.7%
% Inhibition @ Concentration 0.1 uM (AMPA-R): −0.1%
% Inhibition @ Concentration 1 uM (AMPA-R): 40.8%
% Inhibition @ Concentration 10 uM (AMPA-R): 83.5%
BW/KW Ratio, Mean Difference vs. PBS [2]: −48.8
Serum BUN, Mean Difference vs. PBS [2]: −20.06
Serum Creatine, Mean Difference vs. PBS [2]: −0.03463
Mean BW/KW Ratio [2]: 16.81
Mean Serum BUN [2]: 22.41
Mean Serum Creatine [2]: 0.1273
EC50 (miR-17 [3]; D52B5, mouse, PKD): 92.8 nM
miPSA Displacement Score, Mean (miR-17 [4]; single dose 3 mg/kg): 2.247
miPSA Displacement Score, Mean (miR-17 [4]; single dose 30 mg/kg): 2.362
miPSA Displacement Score, Mean (miR-17 [4]; single dose 0.3 m/kg): 1.846
Log2FC (37.5 nM) (miR-17 [5]): 2.70
EC50 (miR-17 [5]): 18.5 nM
